# Data from BindingDB's records for patent US20230312550 (Astrazeneca, 2023).
# Target: T1, Prolyl endopeptidase FAP (Homo sapiens, UniProt Q12884)
# T1 sequence (Q12884 whole entry): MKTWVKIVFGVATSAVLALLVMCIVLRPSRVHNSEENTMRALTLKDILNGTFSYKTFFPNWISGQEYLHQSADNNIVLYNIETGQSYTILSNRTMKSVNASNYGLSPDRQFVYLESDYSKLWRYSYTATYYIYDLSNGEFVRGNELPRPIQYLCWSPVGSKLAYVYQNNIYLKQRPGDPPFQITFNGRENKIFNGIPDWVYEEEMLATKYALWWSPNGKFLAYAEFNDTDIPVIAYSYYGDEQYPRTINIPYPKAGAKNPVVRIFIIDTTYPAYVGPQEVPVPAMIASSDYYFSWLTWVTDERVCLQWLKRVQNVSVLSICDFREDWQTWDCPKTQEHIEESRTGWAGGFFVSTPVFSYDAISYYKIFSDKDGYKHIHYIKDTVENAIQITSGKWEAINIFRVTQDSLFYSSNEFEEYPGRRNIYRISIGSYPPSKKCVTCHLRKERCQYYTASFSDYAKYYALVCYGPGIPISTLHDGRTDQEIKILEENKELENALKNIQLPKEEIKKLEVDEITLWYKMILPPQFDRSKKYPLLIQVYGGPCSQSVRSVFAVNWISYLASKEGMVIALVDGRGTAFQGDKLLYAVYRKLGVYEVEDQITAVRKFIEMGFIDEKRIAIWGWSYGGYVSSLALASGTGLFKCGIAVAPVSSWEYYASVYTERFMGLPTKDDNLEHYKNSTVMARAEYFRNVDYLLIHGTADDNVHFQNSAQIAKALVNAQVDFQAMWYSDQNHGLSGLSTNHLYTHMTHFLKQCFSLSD
# Experiment: hFAP Binding Assay
# Details: for kon: read-out: kon (M-1-s-1)
# Description: Table 1: Compounds were tested in a direct binding assay using 8K surface plasmon resonance biosensor (GE Healthcare) at 20° C. Immobilization of hFAP (M39-A757) on a CMD200M sensor chip (Xantec) was performed using standard amine coupling procedure in immobilization buffer (10 mM HEPES, 150 mM NaCl, 0.05% Tween20, pH 7.4). The surface was washed with 10 mM NaOH, 1M NaCl before being activated with EDC/NHS (GE Healthcare), followed by immobilization of hFAP (in 10 mM Acetate pH 5.0). Finally, the surface was deactivated by ethanolamine. Immobilization levels of hFAP were around 4000-6000 RU. The reference spot was treated as described, omitting the injection of hFAP. Compound concentration series were injected over the immobilized protein in increasing concentrations (2-500 nM) using single cycle kinetics in running buffer (20 mM TRIS, 150 mM NaCl, 0.05% Tween20, 1% DMSO, pH 7.4).
Structure (SMILES),koff,kon
"N#C[C@@H]1CSCN1C(=O)CNC(=O)c1ccnc2ccc(N3CCCC(F)(F)C3)cc12 [US20230312550, Example 36]",9e-05 s⁻¹,3e+06 M⁻¹ s⁻¹
"N#C[C@@H]1CSCN1C(=O)CNC(=O)c1ccnc2ccc(N3CC(F)(c4ccccc4)C3)cc12 [US20230312550, Example 182]",4.2e-05 s⁻¹,250000 M⁻¹ s⁻¹
"C[C@@H]1CN(c2ccc3nccc(C(=O)NCC(=O)N4CSC[C@H]4C#N)c3c2)C[C@H](C)[C@]1(C)O [US20230312550, Example 193]",0.00012 s⁻¹,740000 M⁻¹ s⁻¹
"C[C@]1(O)CCN(c2ccc3nccc(C(=O)NCC(=O)N4CSC[C@H]4C#N)c3c2)C1 [US20230312550, Example 168]",4.8e-05 s⁻¹,1.6e+06 M⁻¹ s⁻¹
"N#C[C@@H]1CSCN1C(=O)CNC(=O)c1ccnc2ccc(-n3ccc4c(F)cc(F)cc43)cc12 [US20230312550, Example 119]",0.00031 s⁻¹,610000 M⁻¹ s⁻¹
"C[C@@H]1COC[C@H](C)N1c1ccc2nccc(C(=O)NCC(=O)N3CSC[C@H]3C#N)c2c1 [US20230312550, Example 90]",0.0001 s⁻¹,480000 M⁻¹ s⁻¹
"CC1(C2CC2)CN(c2ccc3nccc(C(=O)NCC(=O)N4CSC[C@H]4C#N)c3c2)C1 [US20230312550, Example 134]",8e-05 s⁻¹,620000 M⁻¹ s⁻¹
"N#C[C@@H]1CSCN1C(=O)CNC(=O)c1ccnc2ccc(N3C[C@@H]4C[C@H]3CO4)cc12 [US20230312550, Example 75]",2.4e-05 s⁻¹,2.3e+06 M⁻¹ s⁻¹
"N#C[C@@H]1CSCN1C(=O)CNC(=O)c1ccnc2ccc(N3CCCCC3=O)cc12 [US20230312550, Example 14]",6.4e-05 s⁻¹,1.3e+06 M⁻¹ s⁻¹
"C[C@H]1CCCN1c1ccc2nccc(C(=O)NCC(=O)N3CSC[C@H]3C#N)c2c1 [US20230312550, Example 65]",0.00047 s⁻¹,6.7e+06 M⁻¹ s⁻¹
"N#C[C@@H]1CSCN1C(=O)CNC(=O)c1ccnc2ccc(N3CCC34CCC4)cc12 [US20230312550, Example 19]",6.6e-05 s⁻¹,430000 M⁻¹ s⁻¹
"N#C[C@@H]1CSCN1C(=O)CNC(=O)c1ccnc2ccc(N3CC(Cc4ccc(Cl)cc4)C3)cc12 [US20230312550, Example 187]",0.00022 s⁻¹,3.1e+06 M⁻¹ s⁻¹
"CCC1(O)CN(c2ccc3nccc(C(=O)NCC(=O)N4CSC[C@H]4C#N)c3c2)C1 [US20230312550, Example 154]",5.4e-05 s⁻¹,910000 M⁻¹ s⁻¹
"Cc1ncccc1-c1ccc2nccc(C(=O)NCC(=O)N3CSC[C@H]3C#N)c2c1 [US20230312550, Example 128]",0.00066 s⁻¹,5.4e+06 M⁻¹ s⁻¹
"N#C[C@@H]1CSCN1C(=O)CNC(=O)c1ccnc2ccc(N3CCO[C@@H](C(F)(F)F)C3)cc12 [US20230312550, Example 73]",0.00016 s⁻¹,2.4e+06 M⁻¹ s⁻¹
"C[C@H]1COC[C@H](C)N1c1ccc2nccc(C(=O)NCC(=O)N3CSC[C@H]3C#N)c2c1 [US20230312550, Example 103]",0.0001 s⁻¹,3e+06 M⁻¹ s⁻¹
"N#C[C@@H]1CSCN1C(=O)CNC(=O)c1ccnc2ccc(N3CCOC(F)(F)C3)cc12 [US20230312550, Example 4]",9.4e-05 s⁻¹,1.2e+06 M⁻¹ s⁻¹
"N#C[C@@H]1CSCN1C(=O)CNC(=O)c1ccnc2ccc(N3CC(OC(F)F)C3)cc12 [US20230312550, Example 136]",5e-05 s⁻¹,2e+06 M⁻¹ s⁻¹
"CO[C@H]1CCN(c2ccc3nccc(C(=O)NCC(=O)N4CSC[C@H]4C#N)c3c2)C1 [US20230312550, Example 207]",5.3e-05 s⁻¹,4.6e+06 M⁻¹ s⁻¹
"CC(C)OC1CCN(c2ccc3nccc(C(=O)NCC(=O)N4CSC[C@H]4C#N)c3c2)CC1 [US20230312550, Example 43]",1.9e-05 s⁻¹,3.2e+06 M⁻¹ s⁻¹
"N#C[C@@H]1CSCN1C(=O)CNC(=O)c1ccnc2ccc(N3C[C@@H](F)[C@H](F)C3)cc12 [US20230312550, Example 214]",9.2e-05 s⁻¹,2.9e+06 M⁻¹ s⁻¹

Structure (SMILES),koff,kon
"N#C[C@@H]1CSCN1C(=O)CNC(=O)c1ccnc2ccc(N3CC4(CC4)C3)cc12 [US20230312550, Example 164]",3.6e-05 s⁻¹,1.4e+06 M⁻¹ s⁻¹
"N#C[C@@H]1CSCN1C(=O)CNC(=O)c1ccnc2ccc(N3CCCC[C@@H](F)C3)cc12 [US20230312550, Example 59]",0.00019 s⁻¹,2.6e+06 M⁻¹ s⁻¹
"CC1(CS(C)(=O)=O)CN(c2ccc3nccc(C(=O)NCC(=O)N4CSC[C@H]4C#N)c3c2)C1 [US20230312550, Example 188]",2.2e-05 s⁻¹,2.6e+06 M⁻¹ s⁻¹
"CC1CN(c2ccc3nccc(C(=O)NCC(=O)N4CSC[C@H]4C#N)c3c2)C1 [US20230312550, Example 25]",0.00011 s⁻¹,1.4e+06 M⁻¹ s⁻¹
"N#C[C@@H]1CSCN1C(=O)CNC(=O)c1ccnc2ccc(N3CCC[C@@H]3C3CC3)cc12 [US20230312550, Example 199]",0.00026 s⁻¹,2.3e+06 M⁻¹ s⁻¹
"N#C[C@@H]1CSCN1C(=O)CNC(=O)c1ccnc2ccc(N3CC4C(C3)C4(F)F)cc12 (stereo partly specified) [US20230312550, Example 160]",7.4e-05 s⁻¹,1.1e+06 M⁻¹ s⁻¹
"CC[C@H]1COCCN1c1ccc2nccc(C(=O)NCC(=O)N3CSC[C@H]3C#N)c2c1 [US20230312550, Example 106]",0.00014 s⁻¹,1.8e+06 M⁻¹ s⁻¹
"N#C[C@@H]1CSCN1C(=O)CNC(=O)c1ccnc2ccc(N3CCCC4(CC4)C3)cc12 [US20230312550, Example 46]",6.2e-05 s⁻¹,3e+06 M⁻¹ s⁻¹
"CC1(C(F)F)CN(c2ccc3nccc(C(=O)NCC(=O)N4CSC[C@H]4C#N)c3c2)C1 [US20230312550, Example 135]",2.3e-05 s⁻¹,1.7e+06 M⁻¹ s⁻¹
"N#C[C@@H]1CSCN1C(=O)CNC(=O)c1ccnc2ccc(N3CCOc4ccccc43)cc12 [US20230312550, Example 6]",18 s⁻¹,–
"N#C[C@@H]1CSCN1C(=O)CNC(=O)c1ccnc2ccc(N3CC4(CC(F)C4)C3)cc12 [US20230312550, Example 155]",5e-05 s⁻¹,3.1e+06 M⁻¹ s⁻¹
"N#C[C@@H]1CSCN1C(=O)CNC(=O)c1ccnc2ccc(N3CC4CCC(C3)O4)cc12 [US20230312550, Example 79]",0.00012 s⁻¹,1.6e+07 M⁻¹ s⁻¹
"N#C[C@@H]1CSCN1C(=O)CNC(=O)c1ccnc2ccc(N3CCC4(CC3)COC4)cc12 [US20230312550, Example 229]",2.6e-05 s⁻¹,2.4e+06 M⁻¹ s⁻¹
"C[C@@H]1CCN(c2ccc3nccc(C(=O)NCC(=O)N4CSC[C@H]4C#N)c3c2)C1 [US20230312550, Example 55]",0.00025 s⁻¹,6.7e+06 M⁻¹ s⁻¹
"CC1(C)CCN(c2ccc3nccc(C(=O)NCC(=O)N4CSC[C@H]4C#N)c3c2)C1 [US20230312550, Example 48]",8.9e-05 s⁻¹,1.4e+06 M⁻¹ s⁻¹
"Cc1cc(C(F)(F)F)nn1-c1ccc2nccc(C(=O)NCC(=O)N3CSC[C@H]3C#N)c2c1 [US20230312550, Example 116]",0.0012 s⁻¹,7.9e+06 M⁻¹ s⁻¹
"N#C[C@@H]1CSCN1C(=O)CNC(=O)c1ccnc2ccc(N3CC(F)(C4CC4)C3)cc12 [US20230312550, Example 31]",0.00024 s⁻¹,9.7e+06 M⁻¹ s⁻¹
"CC(F)(F)C1CN(c2ccc3nccc(C(=O)NCC(=O)N4CSC[C@H]4C#N)c3c2)C1 [US20230312550, Example 147]",0.00012 s⁻¹,2.8e+06 M⁻¹ s⁻¹
"C[C@H]1CCN(c2ccc3nccc(C(=O)NCC(=O)N4CSC[C@H]4C#N)c3c2)CCO1 [US20230312550, Example 62]",8.5e-05 s⁻¹,710000 M⁻¹ s⁻¹
"N#C[C@@H]1CSCN1C(=O)CNC(=O)c1ccnc2ccc(N3CCC[C@H]3C(F)(F)F)cc12 [US20230312550, Example 56]",0.00011 s⁻¹,540000 M⁻¹ s⁻¹
